Source: US9249145B2, “Heterocyclic derivatives of pyrazol-4-yl-pyrrolo[2,3-d]pyrimidines as janus kinase inhibitors” (Incyte Holdings Corporation, priority 2009, dated 2016)
Where a name gives a salt, the structure may show the parent alone. Read-outs that look alike come from different tables or passages of the source.

What was measured:
[1] = target: T1, human JAK1 (a.a. 837-1142) (Homo sapiens, UniProt P23458); experiment: In vitro JAK kinase assay (HTRF, phosphorylation of biotinylated peptide), JAK1; assay type: biochemical
T1 construct: The catalytic domains of human JAK1 (a.a. 837-1142); His tag (N); made in house; host or cells: insect cells (baculovirus)
T1 sequence (P23458 849-1154): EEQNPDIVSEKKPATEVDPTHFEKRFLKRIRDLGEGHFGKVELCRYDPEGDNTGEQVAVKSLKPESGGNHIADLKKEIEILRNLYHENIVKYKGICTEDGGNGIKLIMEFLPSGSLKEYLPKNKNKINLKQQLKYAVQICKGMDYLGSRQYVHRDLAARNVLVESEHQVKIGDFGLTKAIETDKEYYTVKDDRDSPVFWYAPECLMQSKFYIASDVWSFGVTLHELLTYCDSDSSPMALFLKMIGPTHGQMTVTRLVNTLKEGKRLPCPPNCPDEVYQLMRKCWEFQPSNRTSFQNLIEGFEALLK
Protocol: (§1) Compounds herein were tested for inhibitory activity of JAK targets according to the following in vitro assay described in Park et al., Analytical Biochemistry 1999, 269, 94-104. The catalytic domains of human JAK1 (a.a. 837-1142), Jak2 (a.a. 828-1132) and Jak3 (a.a. 781-1124) with an N-terminal His tag were expressed using baculovirus in insect cells and purified. The catalytic activity of JAK1, JAK2 or JAK3 was assayed by measuring the phosphorylation of a biotinylated peptide. The phosphorylated peptide was detected by homogenous time resolved fluorescence (HTRF). IC50s of compounds were measured for each kinase in the 40 microL reactions that contain the enzyme, ATP and 500 nM peptide in 50 mM Tris (pH 7.8) buffer with 100 mM NaCl, 5 mM DTT, and 0.1 mg/mL (0.01%) BSA. The ATP concentration in the reactions was 90 μM for Jak1, 30 μM for Jak2 and 3 μM for Jak3 for Km conditions. For the 1 mM IC50 measurements, ATP concentration in the reactions was 1 mM. Reactions were carried out at room temperature for 1 hr and then stopped with 20 μL 45 mM EDTA, 300 nM SA-APC, 6 nM Eu-Py20 in assay buffer (Perkin Elmer, Boston, Mass.). Binding to the Europium labeled antibody took place for 40 minutes and HTRF signal was measured on a Fusion plate reader (Perkin Elmer, Boston, Mass.). See Tables 1, 2, 3, and 4 for data related to compounds of the invention.

[2] = target: T2, Jak2 (a.a. 828-1132) (Homo sapiens, UniProt O60674); experiment: In vitro JAK kinase assay (HTRF, phosphorylation of biotinylated peptide), JAK2; assay type: biochemical
T2 construct: Jak2 (a.a. 828-1132); His tag (N); made in house; host or cells: insect cells (baculovirus)
T2 sequence (O60674 828-1132): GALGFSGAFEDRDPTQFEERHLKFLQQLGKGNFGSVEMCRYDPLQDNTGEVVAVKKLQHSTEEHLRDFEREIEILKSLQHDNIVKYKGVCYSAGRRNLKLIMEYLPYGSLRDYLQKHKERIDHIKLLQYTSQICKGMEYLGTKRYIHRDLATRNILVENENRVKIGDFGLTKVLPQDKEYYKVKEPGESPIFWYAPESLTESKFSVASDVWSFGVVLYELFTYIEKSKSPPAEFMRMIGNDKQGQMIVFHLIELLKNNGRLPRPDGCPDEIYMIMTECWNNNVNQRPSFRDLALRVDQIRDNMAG
Protocol: as §1

[3] = 1 mM ATP, Examples 92-162, read-out: JAK1 IC50 (nM) @ 1 mM ATP
[4] = 1 mM ATP, Examples 92-162, read-out: JAK2 IC50 (nM) @ 1 mM ATP
[5] = 1 mM ATP, Examples 1-11, read-out: IC50 (nM) @ 1 mM ATP JAK1
[6] = Km ATP (90 μM for Jak1), Examples 1-11, read-out: IC50 (nM) @ Km ATP JAK1
[7] = 1 mM ATP, Examples 1-11, read-out: IC50 (nM) @ 1 mM ATP JAK2
[8] = Km ATP (30 μM for Jak2), Examples 1-11, read-out: IC50 (nM) @ Km ATP JAK2
[9] = 1 mM ATP, Examples 12-91, read-out: JAK1 IC50 (nM) @ 1 mM ATP
[10] = 1 mM ATP, Examples 12-91, read-out: JAK2 IC50 (nM) @ 1 mM ATP

Row | SMILES | IC50 [1, 5] | IC50 [1, 6] | IC50 [2, 7] | IC50 [2, 8] | IC50 [1, 9] | IC50 [2, 10] | further results
1 | N#CCC(CN1CCN(C(=O)c2ccc(C#N)cc2F)CC1C(F)F)n1cc(-c2ncnc3[nH]ccc23)cn1 (single isomer, unassigned) [Example 159—peak 1, 4-{[4-{3-cyano-2-[4-(7H-pyrrolo[2,3-d]pyrimidin-4-yl)-1H-pyrazol-1-yl]propyl}-3-(difluoromethyl)piperazin-1-yl]carbonyl}-3-fluorobenzonitrile] |  |  |  |  |  |  | IC50 [1, 3]: > 100 nM; IC50 [2, 4]: > 100 nM
2 | N#CCC(CN1CCN(C(=O)c2ccc(C#N)cc2F)CC1C(F)F)n1cc(-c2ncnc3[nH]ccc23)cn1 (single isomer, unassigned) [Example 159—peak 2, 4-{[4-{3-cyano-2-[4-(7H-pyrrolo[2,3-d]pyrimidin-4-yl)-1H-pyrazol-1-yl]propyl}-3-(difluoromethyl)piperazin-1-yl]carbonyl}-3-fluorobenzonitrile] |  |  |  |  |  |  | IC50 [1, 3]: 50 to 100 nM; IC50 [2, 4]: 50 to 100 nM
3 | N#CCC(CN1CCN(C(=O)c2ccc(C#N)cc2F)CC1C(F)F)n1cc(-c2ncnc3[nH]ccc23)cn1 (single isomer, unassigned) [Example 159—peak 3, 4-{[4-{3-cyano-2-[4-(7H-pyrrolo[2,3-d]pyrimidin-4-yl)-1H-pyrazol-1-yl]propyl}-3-(difluoromethyl)piperazin-1-yl]carbonyl}-3-fluorobenzonitrile] |  |  |  |  |  |  | IC50 [1, 3]: < 20 nM; IC50 [2, 4]: 20 to 50 nM
4 | CS(=O)(=O)N1CCN(CC(CC#N)n2cc(-c3ncnc4[nH]ccc34)cn2)CC1 (centres unmarked) [Example 1, 4-[4-(methylsulfonyl)piperazin-1-yl]-3-[4-(7H-pyrrolo[2,3-d]pyrimidin-4-yl)-1H-pyrazol-1-yl]butanenitrile] | < 10 nM | < 10 nM | 10 to 20 nM | < 10 nM |  |  | 
5 | N#CCC(CN1CCN(C(=O)c2ccc(C#N)cc2)CC1)n1cc(-c2ncnc3[nH]ccc23)cn1 (centres unmarked) [Example 2, 4-[(4-{3-cyano-2-[4-(7H-pyrrolo[2,3-d]pyrimidin-4-yl)-1H-pyrazol-1-yl]propyl}piperazin-1-yl)carbonyl]benzonitrile] | < 10 nM | < 10 nM | > 20 nM | 10 to 20 nM |  |  | 
6 | N#CCC(CN1CCN(C(=O)c2cc(F)cc(F)c2)CC1)n1cc(-c2ncnc3[nH]ccc23)cn1 (centres unmarked) [Example 3, 4-[4-(3,5-difluorobenzoyl)piperazin-1-yl]-3-[4-(7H-pyrrolo[2,3-d]pyrimidin-4-yl)-1H-pyrazol-1-yl]butanenitrile] | 10 to 20 nM | < 10 nM | < 10 nM | < 10 nM |  |  | 
7 | Cn1ccc(S(=O)(=O)N2CCN(CC(CC#N)n3cc(-c4ncnc5[nH]ccc45)cn3)CC2)n1 (centres unmarked) [Example 4, 4-{4-[(1-methyl-1H-pyrazol-3-yl)sulfonyl]piperazin-1-yl}-3-[4-(7H-pyrrolo[2,3-d]pyrimidin-4-yl)-1H-pyrazol-1-yl]butanenitrile] | < 10 nM | < 10 nM | < 10 nM | < 10 nM |  |  | 
8 | N#CCC(CC1CCN(S(=O)(=O)C2CC2)CC1)n1cc(-c2ncnc3[nH]ccc23)cn1 (centres unmarked) [Example 5, 4-[1-(cyclopropylsulfonyl)piperidin-4-yl]-3-[4-(7H-pyrrolo[2,3-d]pyrimidin-4-yl)-1H-pyrazol-1-yl]butanenitrile] |  | < 10 nM | < 10 nM | < 10 nM |  |  | 
9 | N#CCC(CC1CCN(C(=O)c2ccc(F)cc2F)CC1)n1cc(-c2ncnc3[nH]ccc23)cn1 (centres unmarked) [Example 6, 4-[1-(2,4-difluorobenzoyl)piperidin-4-yl]-3-[4-(7H-pyrrolo[2,3-d]pyrimidin-4-yl)-1H-pyrazol-1-yl]butanenitrile] |  | < 10 nM |  | < 10 nM |  |  | 
10 | Cn1ccc(S(=O)(=O)N2CCC(CC(CC#N)n3cc(-c4ncnc5[nH]ccc45)cn3)CC2)n1 (centres unmarked) [Example 7, 4-{1-[(1-methyl-1H-pyrazol-3-yl)sulfonyl]piperidin-4-yl}-3-[4-(7H-pyrrolo[2,3-d]pyrimidin-4-yl)-1H-pyrazol-1-yl]butanenitrile] | < 10 nM | < 10 nM | < 10 nM | < 10 nM |  |  | 
11 | N#CCC(CC1CCN(C(=O)c2ccc(F)cc2)CC1)n1cc(-c2ncnc3[nH]ccc23)cn1 (centres unmarked) [Example 8, 4-[1-(4-fluorobenzoyl)piperidin-4-yl]-3-[4-(7H-pyrrolo[2,3-d]pyrimidin-4-yl)-1H-pyrazol-1-yl]butanenitrile] |  | < 10 nM | < 10 nM | < 10 nM |  |  | 
12 | CC(CN1CCN(S(=O)(=O)c2ccn(C)n2)CC1)n1cc(-c2ncnc3[nH]ccc23)cn1 (centres unmarked) [Example 9, 4-[1-(1-methyl-2-{4-[(1-methyl-1H-pyrazol-3-yl)sulfonyl]piperazin-1-yl}ethyl)-1H-pyrazol-4-yl]-7H-pyrrolo[2,3-d]pyrimidine, phosphoric acid salt] | < 10 nM |  | > 20 nM |  |  |  | 
13 | CC(CN1CCN(S(=O)(=O)c2ccn(C)n2)CC1)n1cc(-c2ncnc3[nH]ccc23)cn1 (centres unmarked) [Example 11, 4-[1-(1-methyl-2-{4-[(1-methyl-1H-pyrazol-3-yl)sulfonyl]piperazin-1-yl}ethyl)-1H-pyrazol-4-yl]-7H-pyrrolo[2,3-d]pyrimidine bis(phosphate) Salt] | < 10 nM |  | > 20 nM |  |  |  | 
14 | N#CCC(CN1CCN(C(=O)c2ccc(C(F)F)cc2F)CC1)n1cc(-c2ncnc3[nH]ccc23)cn1 (centres unmarked) [Example 14, 4-{4-[4-(difluoromethyl)-2-fluorobenzoyl]piperazin-1-yl}-3-[4-(7H-pyrrolo[2,3-d]pyrimidin-4-yl)-1H-pyrazol-1-yl]butanenitrile] |  |  |  |  | < 10 nM | 10 to 50 nM | 
15 | N#CCC(CN1CCN(C(=O)c2c(F)cc(C#N)cc2F)CC1)n1cc(-c2ncnc3[nH]ccc23)cn1 (centres unmarked) [Example 15, 4-[(4-{3-cyano-2-[4-(7H-pyrrolo[2,3-d]pyrimidin-4-yl)-1H-pyrazol-1-yl]propyl}piperazin-1-yl)carbonyl]-3,5-difluorobenzonitrile phosphate Salt] |  |  |  |  | < 10 nM | 50 to 100 nM | 
16 | N#CCC(CN1CCN(C(=O)c2ncc(Cl)cc2F)CC1)n1cc(-c2ncnc3[nH]ccc23)cn1 (centres unmarked) [Example 16, 4-{4-[(5-chloro-3-fluoropyridin-2-yl)carbonyl]piperazin-1-yl}-3-[4-(7H-pyrrolo[2,3-d]pyrimidin-4-yl)-1H-pyrazol-1-yl]butanenitrile] |  |  |  |  | < 10 nM | < 10 nM | 

More lines, main results first:

Row | IC50 [1, 5] | IC50 [1, 6] | IC50 [2, 7] | IC50 [2, 8] | IC50 [1, 9] | IC50 [2, 10] | SMILES | further results
17 |  |  |  |  | 10 to 50 nM | > 100 nM | N#CCC(CN1CCN(C(=O)c2ncc(C#N)cc2F)CC1)n1cc(-c2ncnc3[nH]ccc23)cn1 (centres unmarked) [Example 17, 6-[(4-{3-cyano-2-[4-(7H-pyrrolo[2,3-d]pyrimidin-4-yl)-1H-pyrazol-1-yl]propyl}piperazin-1-yl)carbonyl]-5-fluoronicotinonitrile] | 
18 |  |  |  |  | 10 to 50 nM | 50 to 100 nM | COc1ccc(C(=O)N2CCN(CC(CC#N)n3cc(-c4ncnc5[nH]ccc45)cn3)CC2)cc1F (centres unmarked) [Example 18, 4-[4-(3-fluoro-4-methoxybenzoyl)piperazin-1-yl]-3-[4-(7H-pyrrolo[2,3-d]pyrimidin-4-yl)-1H-pyrazol-1-yl]butanenitrile phosphate Salt] | 
19 |  |  |  |  | 10 to 50 nM | > 100 nM | N#CCC(CN1CCN(C(=O)c2ncc(C(F)(F)F)cc2F)CC1)n1cc(-c2ncnc3[nH]ccc23)cn1 (centres unmarked) [Example 19, 4-(4-{[3-fluoro-5-(trifluoromethyl)pyridin-2-yl]carbonyl}piperazin-1-yl)-3-[4-(7H-pyrrolo[2,3-d]pyrimidin-4-yl)-1H-pyrazol-1-yl]butanenitrile] | 
